Experiments:
[1] = system: CD34+ cells (hematopoietic progenitors); assay: Colony assays in methylcellulose; assay type: cell-based, human; settings: 14 days
Experimental: Methocult GF H4434 contained the following hematopoietic growth factors: recombinant human (rh) Erythropoietin 3 U/ml, rh SCF 50 ng/ml, rh granulocyte-macrophage colony-stimulating factor (GM-CSF) 10 ng/ml, and rh IL-310 ng/ml as well as Methylcellulose (1%), Fetal Bovine Serum 30%, Bovine Serum Albumin (1%), 2-Mercaptoethanol ([…]), and L-glutamine (2 mM). Cells were incubated in at 37° C., 5% CO2 with 95% humidity for 14-16 days. Formation and relative distribution of burst forming unit-erythroid (BFU-E), colony forming unit-macrophages (CFU-M) and colony forming unit-granulocyte, macrophage (CFU-GM) colonies were evaluated by scoring under an inverted microscope. Each colony experiment was carried out in triplicate.

[2] = system: MC-42 cells (MC3T3-E1 pre-osteoblastic); assay: Osteoblast differentiation: ALP activity; assay type: cell-based, mouse; settings: SDX-101 75 μM, SDX-308 7.5 μM, 24 hours
Description: (§1) Cells were then harvested for luciferase and ALP (alkaline phosphatase) activity assay. Luciferase and ALP activity were normalized to total protein content of the sample (Xiao G et al. (1997) Mol. Endocrinol. 11:1103-13). […] Samples were then stained using the Von Kossa method (Xiao G et al. (1998) J. Biol. Chem. 273:32988-94).

IκBα = assay: Western blot of IκBα phosphorylation and degradation, MM.1S; assay type: cell-based, human
Experimental: For detection of p65 translocation, cellular nuclear and cytoplasmic extracts were prepared with Nuclear and Cytoplasmic Extraction Reagents (Pierce, Rockford, Ill.). Cell lysates (20-40 μg) were subjected to 10% sodium dodecyl sulfate-polyacrylamide gel electrophoresis and transferred to PVDF membrane (Millipore, Danvers, Mass.). The blots were probed with anti-p65, anti-phospho p65, anti-IκB-α, anti-phospho IκB-α, or anti-phospho IKK-γ (all from Cell Signaling, Beverly, Mass.), and beta-actin antibody (Amersham, Piscataway, N.J.). Immune complexes were detected using enhanced chemiluminescence (Amersham).

OPM2 cells = assay: Proliferation assay (3H-thymidine incorporation), OPM2; assay type: cell-based, human; settings: 48 hours
Experimental: (§2) DNA synthesis was measured by ^3H-thymidine incorporation (3H-TdR; NEN Products, Zaventem, Belgium). Cells were pulsed with ^3H-thymidine (1 μCi/well) during the last 8 hours of culture, harvested onto glassfibre filter mats (Wallac, Gaithersburg, Md.) with an automatic cell harvester (Tomtec Harvester 960 MachIII), and counted using Wallac TriLux Beta plate scintillation counter. All experiments were performed in triplicate.

[3] = system: bone marrow cells from healthy donor on whale dentin slices; assay: Osteoclastic bone resorption on dentin slices; assay type: cell-based, human; settings: 3 weeks
Experimental: Bone marrow cells from healthy donor (2×10^5 cells/well) were seeded on whale dentin slices in 96-well multi-plates at 100 μl/well in α-MEM medium containing 20% horse serum. In addition, 10 ng/ml M-CSF and 50 ng/ml RANKL were added. Half media changes were performed twice a week with fresh media. […] Culture was continued for 3 weeks at 37° C. in an incubator of 5% CO2-air. After 3 weeks, dentin slices were stained with TRAP staining to confirm the osteoclast formation. Then, bone resorption lacunae were stained with hematoxylin. Pit area was quantified by using the public domain NIH ImageJ program. Fixed small representative areas on dentin slices selected and the mean resorption areas were determined.

RPMI-8226 cells = assay: Proliferation assay (3H-thymidine incorporation), RPMI-8226; assay type: cell-based, human; settings: RPMI-1822 / RPMI cells as printed, 48 hours
Experimental: as §2

MC-42 cells = assay: Osteoblast mineralization (von Kossa); assay type: cell-based, mouse; settings: 48 hours, 5.0 mM inorganic phosphate
Description: as §1

[4] = system: non-adherent mononuclear bone marrow cells from healthy donors; assay type: cell-based
Experimental: (§3) Non-adherent mononuclear cells (10^5 cells/well) from either healthy donor or multiple myeloma patients, as well as purified human CD34^+ cells, were seeded in 96-well multi-plates at 100 μl/well in α-MEM medium containing 20% horse serum, 10 ng/ml M-CSF and 50 ng/ml RANKL. […] Half media change was carried out twice a week.
(§4) The culture was incubated for a total of 3 weeks at 37° C. in an incubator of 5% CO2-air. OCL formation was assessed by staining with monoclonal antibody 23c6, which recognizes the CD51/61 dimer on the osteoclast vitronectin receptor (generously provided by Michael Horton, Rayne Institute, Bone and Mineral Center, London, UK), using a Vectastatin-ABC-AP kit (Vector Laboratories, Inc. Burlingame, Calif.). The 23c6^+ multinucleated osteoclasts containing 3 or more nuclei per osteoclast were scored using an inverted microscope. For RAW 264.7 cells, OCL differentiation assay was carried out in 96-well plates. […] Half media change was performed every 2-3 days by replacing with fresh medium containing RANKL with or without tested drugs. Cells were fixed and stained with TRAP-staining kit (Sigma-Aldrich) according to the manufacturer's instructions. TRAP-positive multinuclear cells (>3 nuclei) were counted under the inverted microscope.

IFN-γ = assay: Bio-plex cytokine assay of osteoclast culture supernatants: IFN-γ; assay type: cell-based, human; settings: three weeks treatment
Experimental: (§5) Supernatants collected on day 5, 9, 12, 16 and 21 were analyzed for expression of IL-1α, IL-1β, IL-2, IL-3, IL-4, IL-5, IL-6, IL-7, IL-8, IL-9, IL-10, IL-13, IL-15, IL-17, IL-12p40, IFNα, IFNγ, TNF-α, TNFR-I, TNFR-II, G-CSF, GM-CSF, MCP-1, MIP-1α, MIP-1β, MIG, IP-10, EOTAXIN, RANTES, DR5, EGF, VEGF, FGF-b, and HGF by Bio-plex Cytokine Assay (BIO-RAD Laboratories, USA).

[5] = system: MM cell lines and freshly isolated primary MM cells; settings: Yasui H et al., 2005; cited from earlier work
MIP-1α = assay: Bio-plex cytokine assay of osteoclast culture supernatants: MIP-1α; assay type: cell-based, human; settings: day four; controls 12,000
Description: […] of IL-1α, IL-1β, IL-2, IL-3, IL-4, IL-5, IL-6, IL-7, IL-8, IL-9, IL-10, IL-13, IL-15, IL-17, IL-12p40, IFNα, IFNγ, TNF-α, TNFR-I, TNFR-II, G-CSF, GM-CSF, MCP-1, MIP-1α, MIP-1β, MIG, IP-10, EOTAXIN, RANTES, DR5, EGF, VEGF, FGF-b, and HGF by Bio-plex Cytokine Assay (BIO-RAD Laboratories, USA).

RAW 264.7 cells [6] = assay: Cellular viability of RAW 264.7 cells; assay type: cell-based, mouse; settings: data not shown
[7] = system: MIG (monokine induced by IFN-gamma); assay: Bio-plex cytokine assay of osteoclast culture supernatants: MIG; assay type: cell-based, human; settings: three weeks treatment
Experimental: as §5

MM.1S cells = assay: Proliferation assay (3H-thymidine incorporation), MM.1S; assay type: cell-based, human; settings: 48 hours
Experimental: as §2

RAW 264.7 cells [8] = assay: RANKL-induced OCL differentiation of RAW 264.7 cells (TRAP); assay type: cell-based, murine; settings: 5 days, RANKL 50 ng/ml, SDX-101 75 μM, SDX-308 7.5 μM
Experimental: as §4

[9] = system: CFU-GM colony cells (osteoclast precursors); assay: Osteoclast formation assay with purified CFU-GM cells; assay type: cell-based, human
[10] = system: non-adherent mononuclear bone marrow cells from multiple myeloma patients; assay: Osteoclast formation assay, MM patient bone marrow; assay type: cell-based, human
Experimental: as §3, §4

For CCc1cccc2c3c([nH]c12)[C@@](CC)(CC(=O)O)OCC3 [SDX-101, R-etodolac], the “number of the CFU colonies formed compared to untreated cells” value ([1]; CD34+ cells) was “not significantly different”, the “interference with hematopoietic lineage commitment” value ([1]; SDX-101 30, 50, 75 μM, SDX-308 1, 5, 7.5 μM) was “none of the doses tested for both SDX derivatives interferes” and the ALP activity [2] was “did not decrease the ALP activity”. The “TNF-induced IκBα phosphorylation and degradation” value (IκBα) was “minor or no obvious effect”, the “concentration at which DNA synthesis (thymidine incorporation) was significantly inhibited” value (OPM2 cells) was 100 µM and the “measured bone resorption area” value ([3]; 75 μM, untreated control 8.6) was 1.3 mm^2. The bone resorption ([3]; SDX-101 75 μM, SDX-308 7.5 μM) was “inhibited significantly”, the “concentration at which DNA synthesis (thymidine incorporation) was significantly inhibited” value (RPMI-8226 cells) was 100 µM and the “mineralization of osteoblasts (von Kossa staining)” value (MC-42 cells) was “did not inhibit mineralization”. For the same compound, the “doses exhibiting inhibition of OCL formation” value ([4]; 3 weeks, RANKL 50 ng/ml, M-CSF 10 ng/ml) was “over 50 μM”, the “cell death during the 3 week OCL formation assay” value ([4]; any doses tested) was “No cell death was observed” and the “inhibition of OCL formation, time course of drug addition” value ([4]; healthy donor cells, SDX-101 75 μM, SDX-308 7.5 μM, 3 weeks vs first/last 1 or 2 weeks) was “significantly higher when drug was added during the entire 3 weeks”. The “inhibition of RANK-L/M-CSF-induced human osteoclastogenesis” value ([4]; healthy donor cultures, 21-day assay, SDX-101 30 to 100 μM, SDX-308 3 to 10 μM) was “dose-dependent inhibition”, the “IFN-γ secretion in osteoclast formation assays” value (IFN-γ) was “significantly decreased” and the apoptosis [5] was “induces apoptosis”. For the same compound, the MIP-1α in supernatant (MIP-1α) was 6,000 pg/ML, the “cellular viability, drug alone” value (RAW 264.7 cells [6]) was “no significant effects” and the “MIG secretion in osteoclast formation assays” value [7] was “significantly decreased”. For the same compound, the “concentration at which DNA synthesis (thymidine incorporation) was significantly inhibited” value (MM.1S cells) was 10 µM, the “RANKL-induced OCL formation from RAW 264.7 cells” value (RAW 264.7 cells [8]) was “suppressed” and the “osteoclast inhibition by time point of drug addition” value ([9]; first 1, 2 or 3 weeks or last 1, 2 or 3 weeks) was “no differences in osteoclast inhibition”. For the same compound, the “osteoclast numbers formed from osteoclast progenitor cells” value ([9]; purified CFU-GM cells, 21 days) was “significantly decreased osteoclast numbers”, the “inhibition of OCL formation, time course of drug addition” value ([10]; MM patient cells, SDX-101 75 μM, SDX-308 7.5 μM, 3 weeks vs first/last 1 or 2 weeks) was “significantly higher when drug was added during the entire 3 weeks” and the “inhibition of RANK-L/M-CSF-induced human osteoclastogenesis” value ([10]; MM patient cultures, 21-day assay, SDX-101 30 to 100 μM, SDX-308 3 to 10 μM) was “dose-dependent inhibition”.
